Values quoted from earlier work in PMC5061580 (Journal of biomolecular structure & dynamics, 2016).

Columns and labels:
blood-brain barrier = settings: in-situ rat brain perfusion; ref Kiptoo et al., 2011; On et al., 2014
[1] = system: Madin-Darby canine kidney cells (MDCK); settings: in vitro cell culture monolayers; ref Makagiansar et al., 2001

## Ac-SHAVSS-NH2 [HAV6]
blood-brain barrier
  brain delivery of 14C-mannitol and 3H-daunomycin: increase the brain delivery
[1]
  delivery of 14C-mannitol across MDCK monolayers: enhances
